According to patent US20100029615A1, “BENZIMIDAZOLE DERIVATIVES” (priority 2006, published 2010):
Counter-ions that a name gives are not always drawn.

These compounds were tested against T1, SMO (Mus musculus, UniProt P56726) (assay: Smoothened (SMO)/Sonic Hedgehog (SHh) Transient Transcriptional Activation Assay (Gli-luciferase reporter in C3H10T1/2 cells)). Details: 2 uM test compound, SHh 250 ng/ml, 20 hrs.
T1 construct: endogenous in cells; host or cells: C3H10T1/2 (ATCC #CCL-226)
Assay type: cell-based, murine
How it was run: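 C3H10T1/2 cells transiently transfected with a 10× murine Gli-responsive firefly luciferase reporter plus pEGFP, serum-starved 20 h in 0.5% calf serum, then treated with compounds (2 uM–2 nM final) and 250 ng/ml recombinant human SHh for 20 h at 37 °C. Read-out: Dual-Glo luminescence.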

T1 sequence (P56726 33-793): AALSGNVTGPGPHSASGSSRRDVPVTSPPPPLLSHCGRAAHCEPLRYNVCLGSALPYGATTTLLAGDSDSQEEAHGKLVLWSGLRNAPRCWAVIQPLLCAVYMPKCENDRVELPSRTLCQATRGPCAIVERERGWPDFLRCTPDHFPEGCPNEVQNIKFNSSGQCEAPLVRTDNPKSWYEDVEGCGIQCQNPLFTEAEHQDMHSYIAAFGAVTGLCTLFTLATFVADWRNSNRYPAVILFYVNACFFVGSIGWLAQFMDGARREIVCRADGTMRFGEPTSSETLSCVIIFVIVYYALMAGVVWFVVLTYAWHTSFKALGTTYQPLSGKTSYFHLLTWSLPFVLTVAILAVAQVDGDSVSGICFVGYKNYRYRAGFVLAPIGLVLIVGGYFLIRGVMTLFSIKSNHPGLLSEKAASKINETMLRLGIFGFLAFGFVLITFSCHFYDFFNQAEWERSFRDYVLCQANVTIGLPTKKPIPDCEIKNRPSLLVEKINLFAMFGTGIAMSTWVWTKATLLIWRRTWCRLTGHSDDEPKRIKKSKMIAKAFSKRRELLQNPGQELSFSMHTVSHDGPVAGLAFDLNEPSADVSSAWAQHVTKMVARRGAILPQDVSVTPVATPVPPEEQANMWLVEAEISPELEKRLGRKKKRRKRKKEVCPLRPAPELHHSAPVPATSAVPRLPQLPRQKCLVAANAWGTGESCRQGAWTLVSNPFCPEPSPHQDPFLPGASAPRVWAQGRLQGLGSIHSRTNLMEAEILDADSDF

Row | SMO % inhibition at 2 uM [%] | Compound
1 | 107 | N-(3-(5-Bromo-1-methyl-1H-benzo[d]imidazol-2-yl)cyclohexyl)-3,5-dimethoxybenzamide and N-(3-(6-bromo-1-methyl-1H-benzo[d]imidazol-2-yl)cyclohexyl)-3,5-dimethoxybenzamide [Example 18]

Same assay, conditions: 2 μM test compound, SHh 250 ng/ml, 20 hrs

Row | SMO CELL % INHIBITION @ 2 μM [%] | Compound
2 | 85.2 | Cl.O=C(N[C@H]1CCC[C@H](c2nc3ccccc3[nH]2)C1)c1ccc2c(c1)CN(CC1CC1)CC2 [Example 291, N-[(1S,3S)-3-(1H-benzimidazol-2-yl)cyclohexyl]-2-(cyclopropyl-methyl)-1,2,3,4-tetrahydroisoquino-line-7-carboxamide HCl]

Same assay, conditions: 2 μM test compound, SHh 250 ng/ml, 20 hrs, HCl, 2 µM

Row | SMO CELL % INHIBITION @ 2 μM [%] | Compound
3 | 94.31 | O=C(NC12CCCC(c3nc4cc(C(F)(F)F)ccc4[nH]3)(C1)C2)c1cc2c(cn1)OCCO2 [Example 264, N-{5-[5-(trifluoromethyl)-1H-benzimidazol-2-yl]bicyclo[3.1.1]hept-1-yl}-2,3-dihydro[1,4]di-oxino[2,3-c]pyridine-7-carboxamide HCl]

Same assay, conditions: C3H 10T1/2, 2 uM test compound, SHh 250 ng/ml, 20 hrs, read-out: SMO % inhibition at 2 uM

Row | inhibition at 2 µM [%] | Compound
4 | 71 | Cn1c([C@@H]2CCC[C@H](NC(=O)c3ccc4c(c3)OCCO4)C2)nc2ccccc21 [Example 21, N-((1S,3R)-3-(1-Methyl-1H-benzo[d]imidazol-2-yl)cyclohexyl)-2,3-dihydrobenzo[b](1,4]dioxine-6-carboxamide]
5 | 98 | COc1cc(OC)cc(C(=O)NC2CCCC(c3nc4ccccc4n3CCO)C2)c1 (racemic) [Example 13, N-(3-(1-(2-Hydroxyethyl)-1H-benzo[d]imidazol-2-yl)cyclohexyl)-3,5-dimethoxybenzamide (cis-isomer)]

Same assay, conditions: C3H 10T1/2, 2 μM test compound, SHh 250 ng/ml, 20 hrs, read-out: SMO CELL % INHIBITION @ 2 μM

Row | inhibition at 2 µM [%] | Compound
6 | 53 | O=C(N[C@@H]1CCC[C@H](c2nc3ccccc3[nH]2)C1)C1=Cc2ccccc2OC1 [Example 193, N-[(1R,3S)-3-(1H-benzimidazol-2-yl)cyclohexyl]-2H-chromene-3-carboxamide triflouroacetate]
7 | 103 | O=C(NC1CCCC(c2nc3ccc(Cl)cc3[nH]2)C1)c1ccc2c(c1)OCCO2 (stereo not drawn) [Example 85, N-[3-(6-chloro-1H-benzimidazol-2-yl)cyclohexyl]-2,3-dihydro-1,4-benzodioxine-6-carboxamide HCl]
8 | 107 | N#Cc1ccc(NC(=O)NC23CCCC(c4nc5cc(Cl)ccc5[nH]4)(C2)C3)cc1 [Example 270, 1-[5-(5-chloro-1H-benzimidazol-2-yl)bicyclo[3.1.1]hept-1-yl]-3-(4-cyanophenyl) urea]
9 | 103 | O=C(N[C@@H]1CCC[C@H](c2nc3ccccc3[nH]2)C1)c1ccc2c(c1)CN(CC1CC1)CC2 [Example 267, N-[(1R,3S)-3-(1H-benzimidazol-2-yl)cyclohexyl]-2-(cyclopropyl-methyl)-1,2,3,4-tetrahydroiso-quinoline-7-carboxamide HCl]
10 | 78 | COc1ccc(C2(C(=O)NC3CCCC(c4nc5ccccc5[nH]4)C3)CC2)cc1 (stereo not drawn) [Example 132, N-[3-(1H-benzimidazol-2-yl)cyclohexyl]-1-(4-methoxyphenyl) cyclopropane-carboxamide triflouroacetate]
11 | 80 | O=C(N[C@H]1CCC[C@@H](c2nc3cc(C(F)(F)F)ccc3[nH]2)C1)c1ccc2c(c1)OCCO2 [Example 152, N-{(1S,3R)-3-[5-(trifluoromethyl)-1H-benzimidazol-2-yl]cyclohexyl}-2,3-dihydro-1,4-benzodioxine-6-carboxamide HCl]
12 | 107 | COc1ccc2nc([C@H]3CCC[C@@H](NC(=O)c4ccc5c(c4)OCCO5)C3)[nH]c2c1 [Example 180, N-[(1R,3S)-3-(6-methoxy-1H-benzimidazol-2-yl)cyclohexyl]-2,3-dihydro-1,4-benzodioxine-6-carboxamide HCl]
13 | 94 | N#Cc1ccc(NC(=O)NC23CCCC(c4nc5ccccc5[nH]4)(C2)C3)cc1 [Example 256, 1-(5-(1H-benzo[d]imidaz-ol-2-yl)bicyclo[3.1.1]heptan-1-yl)-3-(4-cyanophenyl)-urea HCl]
14 | 96 | O=C(N[C@@H]1CCC[C@H](c2nc3ccccc3[nH]2)C1)[C@@H]1CCc2ccccc2O1 [Example 218, (2S)-N-[(1R,3S)-3-(1H-benzimidazol-2-yl)cyclohexyl] chromane-2-carboxamide triflouroacetate]
15 | 57 | O=C(Cn1ccc2ccccc2c1=O)NC1CCCC(c2nc3ccccc3[nH]2)C1 (stereo not drawn) [Example 154, N-[3-(1H-benzimidazol-2-yl)cyclohexyl]-2-(1-oxoisoquinolin-2(1H)-yl)acetamide triflouroacetate]
16 | 103 | O=C(C[C@H]1C[C@H]2C=C[C@@H]1C2)NC1CCCC(c2nc3ccccc3[nH]2)C1 (stereo partly drawn) [Example 125, N-[3-(1H-benzimidazol-2-yl)cyclohexyl]-2-[(1S,2S,4S)-bicyclo[2.2.1]hept-5-en-2-yl]acetamide triflouroacetate]
17 | 92 | O=C(NC1CCCC(c2nc3ccccc3[nH]2)C1)c1cnn2c1CCCC2 (stereo not drawn) [Example 122, N-(3-(1H-benzo[d]imida-zol-2-yl)cyclohexyl)-4,5,6,7-tetrahydropyr-azolo[1,5-a]pyridine-3-carboxamide triflouroacetate]
18 | 106 | CN1C(=O)COc2ccc(C(=O)N[C@@H]3CCC[C@H](c4nc5ccccc5n4C)C3)cc21 [Example 297, 4-methyl-N-[(1R,3S)-3-(1-methyl-1H-benzimidazol-2-yl)cyclohexyl]-3-oxo-3,4-dihydro-2H-1,4-benzoxazine-6-carboxamide (+)-tartrate]
19 | 98 | COc1ccc(NC(=O)N[C@@H]2CCC[C@H](c3nc4ccccc4[nH]3)C2)c(C)c1 [Example 235, 1-[(1R,3S)-3-(1H-benzimidazol-2-yl)cyclohexyl]-3-(4-methoxy-2-methylphenyl) urea]
20 | 94 | COC(=O)CCCC(=O)NC1CCCC(c2nc3ccccc3[nH]2)C1 (stereo not drawn) [Example 103, methyl 5-{[3-(1H-benzimidazol-2-yl)cyclohexyl]-amino}-5-oxopentanoate triflouroacetate]
21 | 105 | O=C(Cc1nc2cc(Cl)ccc2[nH]1)NC1CCCC(c2nc3ccccc3[nH]2)C1 (stereo not drawn) [Example 144, N-[3-(1H-benzimidazol-2-yl)cyclohexyl]-2-(5-chloro-1H-benzimidazol-2-yl)acetamide HCl]
22 | 87 | Cn1c(=O)[nH]c2cc(C(=O)NC3CCCC(c4nc5ccccc5[nH]4)C3)ccc21 (stereo not drawn) [Example 143, N-[3-(1H-benzimidazol-2-yl)cyclohexyl]-1-methyl-2-oxo-2,3-dihydro-1H-benzimidazole-5-carboxamide triflouroacetate]
23 | 52 | O=C(NC1CCCC(c2nc3ccccc3[nH]2)C1)c1ncc[nH]1 (stereo not drawn) [Example 61, N-[3-(1H-benzimidazol-2-yl)cyclohexyl]-1H-imidazole-2-carboxamide HCl]
24 | 57 | O=C(N[C@@H]1CCC[C@H](c2nc3ccccc3[nH]2)C1)c1nc2ccccc2[nH]1 [Example 176, N-[(1R,3S)-3-(1H-benzimidazol-2-yl)cyclohexyl]-1H-benzimidazole-2-carboxamide HCl]
25 | 110 | Cc1cc2c(cc1C(=O)NC13CCCC(c4nc5cc(C(F)(F)F)ccc5[nH]4)(C1)C3)OCCO2 [Example 306, 7-methyl-N-{5-[5-(trifluoromethyl)-1H-benzimidazol-2-yl]bicyclo[3.1.1]hept-1-yl}-2,3-dihydro-1,4-benzodioxine-6-carboxamide]
26 | 104 | Cn1c(C2CCCC(NC(=O)c3ccc4c(c3)OCCO4)C2)nc2cc(CN)ccc21 (stereo not drawn) [Example 73, N-{3-[5-(aminomethyl)-1-methyl-1H-benzimidazol-2-yl]cyclohexyl}-2,3-dihydro-1,4-benzodioxine-6-carboxamide HCl]
27 | 92.6 | O=C(NC12CCCC(c3nc4ccccc4[nH]3)(C1)C2)c1ccc2c(c1)CCCO2 [Example 279, N-[5-(1H-benzimidazol-2-yl)bicyclo[3.1.1]hept-1-yl]chromane-6-carboxamide]
28 | 110 | O=C(N[C@@H]1CCC[C@H](c2nc3ccc(Cl)cc3[nH]2)C1)c1ccc2c(c1)OCCO2 [Example 178, N-[(1R,3S)-3-(6-chloro-1H-benzimidazol-2-yl)cyclohexyl]-2,3-dihydro-1,4-benzodioxine-6-carboxamide HCl]
29 | 108 | O=C1CCc2cc(C(=O)NC3CCCC(c4nc5ccccc5[nH]4)C3)ccc2N1 (stereo not drawn) [Example 137, N-[3-(1H-benzimidazol-2-yl)cyclohexyl]-2-oxo-1,2,3,4-tetrahydroquino-line-6-carboxamide triflouroacetate]
30 | 103 | Cc1cccc(=O)n1CC(=O)NC1CCCC(c2nc3ccccc3[nH]2)C1 (stereo not drawn) [Example 111, N-[3-(1H-benzimidazol-2-yl)cyclohexyl]-2-(6-methyl-2-oxopyridin-1(2H)-yl)acetamide triflouroacetate]
31 | 102 | O=C(CNC(=O)c1ccccc1)NC1CCCC(c2nc3ccccc3[nH]2)C1 (stereo not drawn) [Example 117, N-(2-{[3-(1H-benzimidazol-2-yl)cyclohexyl]amino}-2-oxoethyl)benz-amide triflouroacetate]

Row | Compound | inhibition at 2 µM [%]
32 | O=C(N[C@@H]1CCC[C@H](c2nc3ccccc3[nH]2)C1)c1ccc2c(c1)OCCO2 [Example 64, N-[(1R,3S)-3-(1H-benzimidazol-2-yl)cyclohexyl]-2,3-dihydro-1,4-benzodioxine-6-carboxamide triflouroacetate] | 108
33 | O=C(N[C@@H]1CCC[C@@H](c2nc3ccccc3[nH]2)C1)c1ccc2c(c1)OCCO2 [Example 65, N-[(1R,3R)-3-(1H-benzimidazol-2-yl)cyclohexyl]-2,3-dihydro-1,4-benzodioxine-6-carboxamide HCl] | 96
